Results reported in patent US4965280A, “Antifungal carbinols” (E. I. Du Pont de Nemours and Company, priority 1989, dated 1990).
Values after ≈ are worked out from the molar mass of the structure shown.

What was measured:
[1] = tested on: Venturia inaequalis; assay: Example A apple scab; assay type: in vivo; settings: 100 PPM, read-out: disease control rating, Ex. A
Method in brief: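 Acetone solution (6% of final vol.) → suspension at 100 or 20 ppm in water + 250 ppm TREM 014 surfactant; sprayed to run-off on apple seedlings.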

[2] = tested on: Erysiphe graminis f. sp. tritici; assay: Example D wheat powdery mildew; assay type: in vivo; settings: Blumeria graminis, 144 h; 100 PPM; read-out: disease control rating, Ex. D
Method in brief: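 Spray to run-off on wheat seedlings; test suspension 100 or 20 ppm compound, acetone 6% v/v, 250 ppm polyhydric alcohol ester surfactant in water.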

[3] = tested on: Rhizoctonia solani; assay: Example F rice sheath blight; assay type: in vivo; settings: Rhizoctonia solani, 144 h, 100 PPM; read-out: disease control rating, Ex. F
Method in brief: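 Spray to run-off on rice seedlings; test suspension 100 or 20 ppm compound in water + 250 ppm TREM 014 surfactant, acetone 6% final volume.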

[4] = tested on: Phytophthora infestans; assay: whole plant or invertebrate; assay type: in vivo; settings: Phytophthora infestans, in Solanum lycopersicum, read-out: disease control rating, Ex. H, 100 PPM
[5] = tested on: Plasmorpara viticola; assay: Example I grape downy mildew; assay type: in vivo; settings: read-out: disease control rating, Ex. I
Method in brief: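 First, each compound is taken up in acetone amounting to 6% of the final volume. It is then suspended in purified water containing 250 ppm of the polyhydric alcohol ester surfactant TREM 014, at 100 or 20 ppm. Finally, the suspension is sprayed onto grape seedlings until run-off.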

[6] = tested on: Pythium aphanadermatum; assay: Example J cucumber damping off; assay type: in vivo; settings: Pythium, 336 h; 5 kg/ha; read-out: disease control rating, Ex. J
Method in brief: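 Seeds and soil were inoculated with a mix of sand, cereal and Pythium aphanadermatum mycelium, the fungus responsible for cucumber damping off. They were kept in a growth chamber at 30° C. for 14 days, and disease was then rated to assess control.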

[7] = tested on: Fusarium oxysporum f. sp. cucumerinum; assay: Example L cucumber wilt; assay type: in vivo; settings: 336 h, 5 kg/ha, read-out: disease control rating, Ex. L
Experimental: […] Seeds and soil were then inoculated with a mixture of sand, cereal and mycelium of the fungus Fusarium oxysporum f. sp. cucumerinum, causal agent of cucumber wilt, and incubated in a growth chamber at 30° C. for 14 days. Disease ratings were then made.

[8] = tested on: ARROWHEAD; assay: Test C rice paddy; assay type: in vivo, Sagittaria spp.; settings: Sagittaria, 504 h, 21 days, read-out: plant response; for pest or weed control at 64 g/ha: 0064 G/HA; for pest or weed control at 125 g/ha: 0125 G/HA; for pest or weed control at 250 g/ha: 0250 G/HA; for pest or weed control at 500 g/ha: 0500 G/HA
From the text: (§1) Sixteen cm diameter Airlite plastic pots were partially filled with Tama slit loam soil and the soil saturated with water. Japonica and Indica rice seedlings a the 2.0 to 2.5 leaf stage were transplanted into 1/3 of the pots. Into another third of the pots were transplanted seedling or sprouted tubers of water plantain (Alisma trivale), Scripus (Scirpus paludosus), Cyperus (Cyperus esculentus), and arrowhead (Sagittaria spp.). The remaining pots were planted with barnyardgrass (Echinochloa crusgalli) seeds and sprouted tubes of water chestnut (Eleocharis spp.). These weeds all represent major rice weeds or genera of weeds important in rice. Three to four days after planting, the water level was raised to 3 cm (about 1200 ml/pot) and maintained a this level throughout the test. Chemical treatments were applied directly to the paddy water, within 24 hours of raising the water, after being formulated in a nonphytotoxic solvent. The pots were maintained in the greenhouse.

[9] = tested on: SCIRPUS; assay: Test C rice paddy; assay type: in vivo, Scirpus paludosus; settings: Bolboschoenus maritimus, 504 h, 21 days, read-out: plant response; for pest or weed control at 64 g/ha: 0064 G/HA; for pest or weed control at 125 g/ha: 0125 G/HA; for pest or weed control at 250 g/ha: 0250 G/HA; for pest or weed control at 500 g/ha: 0500 G/HA
From the text: as §1

[10] = tested on: YELLOW NUTSEDGE; assay: Test C rice paddy; assay type: in vivo, Cyperus esculentus; settings: 21 days
From the text: as §1

[11] = tested on: WATER PLAINTAIN; assay: Test C rice paddy; assay type: in vivo, Alisma trivale; settings: 504 h, 21 days, read-out: plant response; for pest or weed control at 64 g/ha: 0064 G/HA; for pest or weed control at 125 g/ha: 0125 G/HA; for pest or weed control at 250 g/ha: 0250 G/HA; for pest or weed control at 500 g/ha: 0500 G/HA
From the text: as §1

[12] = tested on: RICE JAP EFF; assay: Test C rice paddy; assay type: in vivo, Japonica rice; settings: Oryza sativa, 504 h, 21 days, read-out: plant response; for pest or weed control at 64 g/ha: 0064 G/HA; for pest or weed control at 125 g/ha: 0125 G/HA; for pest or weed control at 250 g/ha: 0250 G/HA; for pest or weed control at 500 g/ha: 0500 G/HA
From the text: as §1

[13] = tested on: RICE INDICA EFF; assay: Test C rice paddy; assay type: in vivo; settings: Oryza sativa, 504 h, 21 days, read-out: plant response; for pest or weed control at 64 g/ha: 0064 G/HA; for pest or weed control at 125 g/ha: 0125 G/HA; for pest or weed control at 250 g/ha: 0250 G/HA; for pest or weed control at 500 g/ha: 0500 G/HA
From the text: as §1

[14] = tested on: Candida albicans ATCC 11651; assay: In vitro antifungal MIC, microtiter broth dilution; settings: Candida albicans, ATCC11651, 24 h, read-out: MIC values, C. albicans, 30°, 24 hours
[15] = tested on: Aspergillus fumigatus ATCC 28214; assay: In vitro antifungal MIC, microtiter broth dilution; settings: Aspergillus fumigatus, ATCC28214, 24 h, read-out: MIC values, A. fumigatus, 30°, 24 hours
[16] = tested on: Rhizoctonia solani; assay: Example K cotton blight; assay type: in vivo; settings: 336 h, 5 kg/ha, read-out: disease control rating, Ex. K
Experimental: […] Seeds and soil were then inoculated with a mixture of sand, cereal and mycelium of the fungus Rhizoctonia solani, causal agent of cotton blight, and incubated in a growth chamber at 30° C. for 14 days. Disease ratings were then made.

Structure (SMILES): C=C(c1ccccc1)C(O)(Cn1cncn1)c1ccc(Cl)cc1Cl (stereo not shown) [Example 50, 2-(2,4-Dichlorophenyl)-3-phenyl-1-(1H-1,2,4-triazol-1-yl)-3-buten-2-ol]
- pest or weed control at 100 ppm [1]: 100%
- pest or weed control at 100 ppm [2]: 95%
- pest or weed control at 100 ppm [3]: 93%
- pest or weed control at 100 ppm [4]: 0%
- pest or weed control at 100 ppm [5]: 46%
- pest or weed control at 5000 g/ha [6]: 0%
- pest or weed control at 5000 g/ha [7]: 0%
- pest or weed control at 64 g/ha [8]: 0%
- pest or weed control at 125 g/ha [8]: 0%
- pest or weed control at 250 g/ha [8]: 0%
- pest or weed control at 500 g/ha [8]: 30%
- pest or weed control at 1000 g/ha [8]: 50%
- pest or weed control at 64 g/ha [9]: 0%
- pest or weed control at 125 g/ha [9]: 0%
- pest or weed control at 250 g/ha [9]: 0%
- pest or weed control at 500 g/ha [9]: 0%
- pest or weed control at 1000 g/ha [9]: 0%
- plant response ([10]; 0064 G/HA): 0
- plant response ([10]; 0125 G/HA): 0
- plant response ([10]; 0250 G/HA): 0
- plant response ([10]; 0500 G/HA): 30
- plant response ([10]; 1000 G/HA): 50
- pest or weed control at 64 g/ha [11]: 0%
- pest or weed control at 125 g/ha [11]: 0%
- pest or weed control at 250 g/ha [11]: 0%
- pest or weed control at 500 g/ha [11]: 0%
- pest or weed control at 1000 g/ha [11]: 0%
- pest or weed control at 64 g/ha [12]: 0%
- pest or weed control at 125 g/ha [12]: 0%
- pest or weed control at 250 g/ha [12]: 30%
- pest or weed control at 500 g/ha [12]: 60%
- pest or weed control at 1000 g/ha [12]: 70%
- pest or weed control at 64 g/ha [13]: 0%
- pest or weed control at 125 g/ha [13]: 40%
- pest or weed control at 250 g/ha [13]: 30%
- pest or weed control at 500 g/ha [13]: 70%
- pest or weed control at 1000 g/ha [13]: 80%
- MIC [14]: 0.1 µg/mL (≈ 0.278 µM)
- MIC [15]: 0.8 µg/mL (≈ 2.22 µM)

Structure (SMILES): C=C(c1ccc(F)cc1)C(O)(Cn1ncnc1S)c1ccc(F)cc1F (stereo not shown) [Example 1304]
- pest or weed control at 100 ppm [1]: 100%
- pest or weed control at 100 ppm [2]: 100%
- pest or weed control at 100 ppm [3]: 88%
- pest or weed control at 100 ppm [4]: 0%
- pest or weed control at 100 ppm [5]: 18%
- pest or weed control at 5000 g/ha [6]: 0%
- pest or weed control at 5000 g/ha [16]: 0%
- pest or weed control at 5000 g/ha [7]: 0%
- pest or weed control at 64 g/ha [8]: 0%
- pest or weed control at 125 g/ha [8]: 0%
- pest or weed control at 250 g/ha [8]: 0%
- pest or weed control at 500 g/ha [8]: 0%
- pest or weed control at 1000 g/ha [8]: 30%
- pest or weed control at 64 g/ha [9]: 0%
- pest or weed control at 125 g/ha [9]: 0%
- pest or weed control at 250 g/ha [9]: 65%
- pest or weed control at 500 g/ha [9]: 70%
- pest or weed control at 1000 g/ha [9]: 80%
- plant response ([10]; 0064 G/HA): 0
- plant response ([10]; 0125 G/HA): 0
- plant response ([10]; 0250 G/HA): 0
- plant response ([10]; 0500 G/HA): 0
- plant response ([10]; 1000 G/HA): 0
- pest or weed control at 64 g/ha [11]: 0%
- pest or weed control at 125 g/ha [11]: 0%
- pest or weed control at 250 g/ha [11]: 0%
- pest or weed control at 500 g/ha [11]: 0%
- pest or weed control at 1000 g/ha [11]: 65%
- pest or weed control at 64 g/ha [12]: 0%
- pest or weed control at 125 g/ha [12]: 0%
- pest or weed control at 250 g/ha [12]: 0%
- pest or weed control at 500 g/ha [12]: 0%
- pest or weed control at 1000 g/ha [12]: 40%
- pest or weed control at 64 g/ha [13]: 0%
- pest or weed control at 125 g/ha [13]: 0%
- pest or weed control at 250 g/ha [13]: 0%
- pest or weed control at 500 g/ha [13]: 0%
- pest or weed control at 1000 g/ha [13]: 40%

Structure (SMILES): C=C(c1ccc(F)cc1)C(O)(Cn1ncnc1I)c1ccc(F)cc1F (stereo not shown) [Example 1381]
- pest or weed control at 100 ppm [1]: 100%
- pest or weed control at 100 ppm [2]: 98%
- pest or weed control at 100 ppm [3]: 73%
- pest or weed control at 100 ppm [4]: 0%
- pest or weed control at 100 ppm [5]: 78%
- pest or weed control at 5000 g/ha [6]: 0%
- pest or weed control at 5000 g/ha [16]: 50%
- pest or weed control at 5000 g/ha [7]: 0%
- pest or weed control at 64 g/ha [8]: 0%
- pest or weed control at 125 g/ha [8]: 0%
- pest or weed control at 250 g/ha [8]: 0%
- pest or weed control at 500 g/ha [8]: 0%
- pest or weed control at 1000 g/ha [8]: 0%
- pest or weed control at 64 g/ha [9]: 0%
- pest or weed control at 125 g/ha [9]: 0%
- pest or weed control at 250 g/ha [9]: 0%
- pest or weed control at 500 g/ha [9]: 0%
- pest or weed control at 1000 g/ha [9]: 30%
- plant response ([10]; 0064 G/HA): 0
- plant response ([10]; 0125 G/HA): 0
- plant response ([10]; 0250 G/HA): 0
- plant response ([10]; 0500 G/HA): 40
- plant response ([10]; 1000 G/HA): 50
- pest or weed control at 64 g/ha [11]: 0%
- pest or weed control at 125 g/ha [11]: 0%
- pest or weed control at 250 g/ha [11]: 0%
- pest or weed control at 500 g/ha [11]: 0%
- pest or weed control at 1000 g/ha [11]: 0%
- pest or weed control at 64 g/ha [12]: 0%
- pest or weed control at 125 g/ha [12]: 0%
- pest or weed control at 250 g/ha [12]: 20%
- pest or weed control at 500 g/ha [12]: 40%
- pest or weed control at 1000 g/ha [12]: 60%
- pest or weed control at 64 g/ha [13]: 0%
- pest or weed control at 125 g/ha [13]: 0%
- pest or weed control at 250 g/ha [13]: 20%
- pest or weed control at 500 g/ha [13]: 40%
- pest or weed control at 1000 g/ha [13]: 60%
